Results on 4 compounds are retold here after US5955479A, “Levobupivacaine for managing chronic pain” (Darwin Discovery Ltd., priority 1993, dated 1999).

Structures are written as SMILES. Counter-ions that a name gives are not always drawn.

Data set [1] in a line: Fatal dose of racbupivacaine HCl in sheep (increasing bolus doses until a fatal outcome). Format: in vivo. How it is done:
(§1) Four sheep weighing 39-49 kg (mean 44, SD 4 kg) were given increasing bolus doses (from 40 mg) of racbupivacaine HCl These were administered at least 1 day apart via a PVC cannula until a fatal outcome resulted. The heart and brain were removed within 20 min of death to be analysed for bupivacaine concentration. The heart was removed by transection through the great vessels approximately 20 mm above the level of the aortic valve, and 20 mm below the caudal border of the right atrium. Blood was immediately expressed from the cardiac chambers, and representative samples of the left and right atrium and ventricle were obtained, blotted and stored frozen (-20° C.) until assay. The brain was removed by transection at the level of the lower border of the pons, blotted and stored frozen as for the heart tissue.

The nature of data set [2]: Tissue concentrations of bupivacaine enantiomers in sheep post-mortem after increasing bolus doses of racbupivacaine HCl until fatal outcome. The data set is classed as in vivo. How it is done: as §1
The variability in the fatal doses (80-200 mg) was reflected in the tissue concentrations measured post-mortem. Larger differences in the concentrations of both bupivacaine enantiomers in the atrium and ventricle were apparent.

For data set [3] the following is noted: chronic epidural and opioid infusions, 0.1 to 0.5% bupivacaine, cancer pain; cited from earlier work.
For data set [4] the following is noted: surgical wound infiltrated before closure, 0.25%; cited from earlier work.
The conditions of data set [5]: some pain syndromes; cited from earlier work.
For data set [6] the following is noted: described in PCT/GB94/02249; cited from earlier work.
The conditions of data set [7]: Vanhoutte et al (1991); Denson et al (1992); cited from earlier work.
[8] abbreviates: sheep No. 1, fatal dose 80 mg racbupivacaine HCl.
[9] abbreviates: sheep No. 2, fatal dose 80 mg racbupivacaine HCl.
[10] abbreviates: sheep No. 3, fatal dose 200 mg racbupivacaine HCl.
[11] abbreviates: sheep No. 4, fatal dose 200 mg racbupivacaine HCl.
The mark [12] stands for this setting: levobupivacaine vs dexbupivacaine.

For the compound `CCCCN1CCCCC1C(=O)Nc1c(C)cccc1C` (racemic) [racbupivacaine HCl], in data set [1] (four sheep, increasing bolus doses), the “Fatal doses (variability)” value was 80 to 200 mg. Further, the Fatal dose in data set [1] (sheep No. 1, increasing bolus doses) is listed as 80 mg; in data set [1] (sheep No. 2, increasing bolus doses), 80 mg; in data set [1] (sheep No. 3, increasing bolus doses), 200 mg; in data set [1] (sheep No. 4, increasing bolus doses), 200 mg.
With `CCCCN1CCCCC1C(=O)Nc1c(C)cccc1C` (racemic) [racemic bupivacaine, 1-butyl-N-(2,6-dimethylphenyl)-2-piperidinecarboxamide], the “R:S ratio of tissue concentration, Atrium” value is given as 0.92 in data set [2] (setting [8]), 1.08 in data set [2] (setting [9]), 0.99 in data set [2] (setting [10]) and 1.02 in data set [2] (setting [11]). Further, the “R:S ratio of tissue concentration, Brain” value in data set [2] (setting [8]) is listed as 1.06; in data set [2] (setting [9]), 1.08; in data set [2] (setting [10]), 1.09; in data set [2] (setting [11]), 1.08. For the same compound, the “R:S ratio of tissue concentration, Ventricle” value in data set [2] (setting [8]) came out at 1.18; in data set [2] (setting [9]), 1.05; in data set [2] (setting [10]) it was 1.03; in data set [2] (setting [11]), 1.03. The Bupivacaine clearance result in data set [3] is recorded as “progressive reduction in bupivacaine clearance”. In addition, the “Control of post-operative pain” value in data set [4] is given as “effective in the control of post-operative pain”. The “Opioid requirements of patients recovering from herniorrhaphy” value in data set [4] was “reduce the opioid requirements”. The “Analgesic usefulness in chronic administration” value in data set [5] is listed as “useful in chronic administration as an analgesic in some pain syndromes”.
On to `CCCCN1CCCC[C@@H]1C(=O)Nc1c(C)cccc1C` [dexbupivacaine], for which the “Uptake of enantiomers by ventricle and brain” value in data set [2] (both P=0.03 by the Students paired t test, four sheep) is “more (+)-(R)- than (-)-(S)-bupivacaine being taken up by these tissues”. For the same compound, in data set [2] (four sheep, difference R vs S), the “Uptake of enantiomers by atrium” value is recorded as “This was not so for the atrium”. The “Tissue concentration, Atrium” value in data set [2] (setting [8]) amounted to 5.70 µg/g; in data set [2] (setting [9]), 3.94 µg/g; in data set [2] (setting [10]), 17.9 µg/g; in data set [2] (setting [11]), 21.5 µg/g. Further, the “Tissue concentration, Brain” value in data set [2] (setting [8]) amounted to 6.91 µg/g; in data set [2] (setting [9]), 4.97 µg/g; in data set [2] (setting [10]), 12.7 µg/g; in data set [2] (setting [11]), 17.2 µg/g. Further, the “Tissue concentration, Ventricle” value came to 9.93 µg/g in data set [2] (setting [8]), 7.70 µg/g in data set [2] (setting [9]), 45.6 µg/g in data set [2] (setting [10]) and 34.1 µg/g in data set [2] (setting [11]).
Regarding `CCCCN1CCCC[C@H]1C(=O)Nc1c(C)cccc1C` [levobupivacaine], in data set [2] (setting [12]), the “Accumulation in the heart and brain” value was “does not accumulate in the heart and brain as much as the other component (dexbupivacaine)”; the “Tissue uptake into ventricle and brain vs dexbupivacaine” value is “less tissue uptake of levobupivacaine into ventricle and brain than dexbupivacaine”. Besides, the Clearance result in data set [2] (levobupivacaine vs dexbupivacaine, inferred from tissue uptake) is “improved clearance”. In addition, in data set [2] (setting [8]), the “Tissue concentration, Atrium” value worked out at 6.22 µg/g; the “Tissue concentration, Brain” value was determined as 6.53 µg/g; the “Tissue concentration, Ventricle” value was 8.44 µg/g. Moreover, in data set [2] (setting [9]), the “Tissue concentration, Atrium” value was 3.65 µg/g; the “Tissue concentration, Brain” value stood at 4.59 µg/g; the “Tissue concentration, Ventricle” value stood at 7.36 µg/g. Besides, in data set [2] (setting [10]), the “Tissue concentration, Atrium” value worked out at 18.0 µg/g; the “Tissue concentration, Brain” value was 11.7 µg/g; the “Tissue concentration, Ventricle” value stood at 44.1 µg/g. Also, in data set [2] (setting [11]), the “Tissue concentration, Atrium” value is 21.2 µg/g; the “Tissue concentration, Brain” value was 16.3 µg/g; the “Tissue concentration, Ventricle” value stood at 33.3 µg/g. Besides, the “Cardiodepressant effect relative to racemic bupivacaine” value in data set [6] is recorded as “reduced cardiodepressant effect”. The “Cardiotoxicity relative to dexbupivacaine and racemic bupivacaine” value in data set [7] is “probably less cardiotoxic than dexbupivacaine and racemic bupivacaine”.
